Assay results taken from article PMC5218480 (PLoS ONE, 2017).

System: MV-4-11 cells
Test: Gene expression microarray analysis (Affymetrix PrimeView) and GSEA
Format: cell-based, human
Parameters: RFU PODN (11730768_x_at) / Fold change /veh PODN (11730768_x_at) / RFU LINC00158 (11744669_a_at) / Fold change /veh LINC00158 (11744669_a_at) / RFU DUSP10 (11751237_a_at) / Fold change /veh DUSP10 (11751237_a_at) / RFU ID3 (11757404_x_at) / Fold change /veh ID3 (11757404_x_at) / RFU PLEKHG5 (11737974_s_at) / Fold change /veh PLEKHG5 (11737974_s_at) / RFU LRRC4B (11730491_at) / Fold change /veh LRRC4B (11730491_at) / RFU GIMAP4 (11747438_a_at) / Fold change /veh GIMAP4 (11747438_a_at) / RFU KRT8 (11758183_x_at) / Fold change /veh KRT8 (11758183_x_at) / RFU CNN1 (11734310_a_at) / Fold change /veh CNN1 (11734310_a_at) / RFU VPS37D (11726825_at) / Fold change /veh VPS37D (11726825_at) / RFU C10orf10 (11716522_x_at) / Fold change /veh C10orf10 (11716522_x_at) / RFU KIR2DL2 /// KIR2DL4 /// KIR2DL5A /// KIR2DL5B /// KIR2DS1 /// KIR2DS2 /// KIR2DS3 /// KIR2DS4 /// KIR3DL3 /// KIR3DL3 /// KIR3DS1 (11738374_at) / Fold change /veh KIR2DL2 /// KIR2DL4 /// KIR2DL5A /// KIR2DL5B /// KIR2DS1 /// KIR2DS2 /// KIR2DS3 /// KIR2DS4 /// KIR3DL3 /// KIR3DL3 /// KIR3DS1 (11738374_at) / RFU C1QL1 (11718748_at) / Fold change /veh C1QL1 (11718748_at) / RFU TMPRSS4 (11747572_a_at) / Fold change /veh TMPRSS4 (11747572_a_at) / RFU HAMP (11756126_x_at) / Fold change /veh HAMP (11756126_x_at) / RFU RNFT2 (11725882_a_at) / Fold change /veh RNFT2 (11725882_a_at) / RFU NR4A2 (11747474_a_at) / Fold change /veh NR4A2 (11747474_a_at) / RFU ABCC12 (11746883_a_at) / Fold change /veh ABCC12 (11746883_a_at) / RFU TMEM136 (11760407_x_at) / Fold change /veh TMEM136 (11760407_x_at) / RFU CLDN22 /// WWC2 (11732394_at) / Fold change /veh CLDN22 /// WWC2 (11732394_at) / RFU HLA-DPB1 (11760878_x_at) / Fold change /veh HLA-DPB1 (11760878_x_at) / RFU SPINT1 (11716480_a_at) / Fold change /veh SPINT1 (11716480_a_at) / RFU GAP43 (11754022_s_at) / Fold change /veh GAP43 (11754022_s_at) / RFU A4GNT (11735810_at) / Fold change /veh A4GNT (11735810_at) / RFU PRB3 (11715151_x_at) / Fold change /veh PRB3 (11715151_x_at) / RFU TUBB4B (11761932_at) / Fold change /veh TUBB4B (11761932_at) / RFU CAPN14 (11732068_a_at) / Fold change /veh CAPN14 (11732068_a_at) / RFU TMCC2 (11721928_a_at) / Fold change /veh TMCC2 (11721928_a_at) / RFU IRGQ (11745062_a_at) / Fold change /veh IRGQ (11745062_a_at) / RFU FAM174B (11720279_a_at) / Fold change /veh FAM174B (11720279_a_at) / RFU TMPRSS4 (11748680_a_at) / Fold change /veh TMPRSS4 (11748680_a_at) / RFU FAM212B (11763350_a_at) / Fold change /veh FAM212B (11763350_a_at) / RFU PLEKHG5 (11743358_a_at) / Fold change /veh PLEKHG5 (11743358_a_at) / RFU ZSCAN30 (11745921_a_at) / Fold change /veh ZSCAN30 (11745921_a_at) / RFU CMKLR1 (11741424_a_at) / Fold change /veh CMKLR1 (11741424_a_at) / RFU LOC101060620 /// MAPK8IP1 (11723275_at) / Fold change /veh LOC101060620 /// MAPK8IP1 (11723275_at) / RFU SPTSSB (11747773_x_at) / Fold change /veh SPTSSB (11747773_x_at) / RFU PRSS12 (11739890_at) / Fold change /veh PRSS12 (11739890_at) / RFU BIN1 (11741810_x_at) / Fold change /veh BIN1 (11741810_x_at) / RFU WNT11 (11732464_a_at) / Fold change /veh WNT11 (11732464_a_at) / RFU C10orf10 (11716521_a_at) / Fold change /veh C10orf10 (11716521_a_at) / RFU C5orf56 (11738089_at) / Fold change /veh C5orf56 (11738089_at) / RFU CYB561 (11721691_x_at) / Fold change /veh CYB561 (11721691_x_at) / RFU ANKRD19P (11752326_a_at) / Fold change /veh ANKRD19P (11752326_a_at) / RFU OR2T12 /// OR2T33 /// OR2T8 (11738714_s_at) / Fold change /veh OR2T12 /// OR2T33 /// OR2T8 (11738714_s_at) / RFU VCAN (11748164_a_at) / Fold change /veh VCAN (11748164_a_at) / RFU JSRP1 (11732532_at) / Fold change /veh JSRP1 (11732532_at) / RFU KRTAP10-11 (11738290_x_at) / Fold change /veh KRTAP10-11 (11738290_x_at) / RFU MYO3A (11730013_a_at) / Fold change /veh MYO3A (11730013_a_at) / RFU EBF3 (11725865_a_at) / Fold change /veh EBF3 (11725865_a_at) / RFU CAMK2N1 (11719241_x_at) / Fold change /veh CAMK2N1 (11719241_x_at) / RFU C5orf56 (11738088_a_at) / Fold change /veh C5orf56 (11738088_a_at) / RFU OLFML3 (11715873_a_at) / Fold change /veh OLFML3 (11715873_a_at) / RFU LOC100653217 /// NTM (11731650_a_at) / Fold change /veh LOC100653217 /// NTM (11731650_a_at) / RFU MAPK11 (11762145_a_at) / Fold change /veh MAPK11 (11762145_a_at) / RFU FIZ1 (11724087_x_at) / Fold change /veh FIZ1 (11724087_x_at) / RFU OASL (11726364_x_at) / Fold change /veh OASL (11726364_x_at) / RFU SOX15 (11748057_x_at) / Fold change /veh SOX15 (11748057_x_at) / RFU CD79A (11719716_a_at) / Fold change /veh CD79A (11719716_a_at) / RFU HIST1H1D (11736915_at) / Fold change /veh HIST1H1D (11736915_at) / RFU CASKIN2 (11723855_a_at) / Fold change /veh CASKIN2 (11723855_a_at) / RFU LOC730098 (11760151_x_at) / Fold change /veh LOC730098 (11760151_x_at) / RFU OR4N2 (11742367_at) / Fold change /veh OR4N2 (11742367_at) / RFU PRRT2 (11749266_a_at) / Fold change /veh PRRT2 (11749266_a_at) / RFU SNX32 (11753110_a_at) / Fold change /veh SNX32 (11753110_a_at) / RFU CDHR5 (11726645_a_at) / Fold change /veh CDHR5 (11726645_a_at) / RFU RCAN1 (11760418_a_at) / Fold change /veh RCAN1 (11760418_a_at) / RFU FAM167A (11723789_a_at) / Fold change /veh FAM167A (11723789_a_at) / RFU FAM26E (11764081_at) / Fold change /veh FAM26E (11764081_at) / RFU ISYNA1 (11749810_s_at) / Fold change /veh ISYNA1 (11749810_s_at) / RFU ACY1 (11761880_at) / Fold change /veh ACY1 (11761880_at) / RFU 11764098_at / Fold change /veh 11764098_at / RFU SAMD14 (11745864_x_at) / Fold change /veh SAMD14 (11745864_x_at) / RFU NPB (11741838_a_at) / Fold change /veh NPB (11741838_a_at) / RFU TMPRSS6 (11731388_a_at) / Fold change /veh TMPRSS6 (11731388_a_at) / RFU KRTAP10-2 (11738614_at) / Fold change /veh KRTAP10-2 (11738614_at) / RFU ARHGAP8 /// PRR5-ARHGAP8 (11727945_x_at) / Fold change /veh ARHGAP8 /// PRR5-ARHGAP8 (11727945_x_at) / RFU KRTAP5-7 /// NADSYN1 (11734609_at) / Fold change /veh KRTAP5-7 /// NADSYN1 (11734609_at) / RFU RASL12 (11751679_a_at) / Fold change /veh RASL12 (11751679_a_at) / RFU CDKN2B (11736163_a_at) / Fold change /veh CDKN2B (11736163_a_at) / RFU PRF1 (11729649_at) / Fold change /veh PRF1 (11729649_at) / RFU, ZNF638 /// ZNF638-IT1 / Fold change vs veh, ZNF638 /// ZNF638-IT1 / RFU, PANK3 / Fold change vs veh, PANK3 / RFU, SH3YL1 / Fold change vs veh, SH3YL1 / RFU, ZEB2 / Fold change vs veh, ZEB2 / RFU, NRIP1 / Fold change vs veh, NRIP1 / RFU, PTTG1IP / Fold change vs veh, PTTG1IP / RFU, CAPN2 / Fold change vs veh, CAPN2 / RFU, MED14 / Fold change vs veh, MED14 / RFU, SNORA58 / Fold change vs veh, SNORA58 / RFU, C1orf63 / Fold change vs veh, C1orf63 / RFU, LRRFIP1 / Fold change vs veh, LRRFIP1 / RFU, NDUFAF7 / Fold change vs veh, NDUFAF7 / RFU, SLC12A2 / Fold change vs veh, SLC12A2 / RFU, IBTK / Fold change vs veh, IBTK / RFU, ESF1 / Fold change vs veh, ESF1 / Fold change vs veh, TMEM50B / RFU, TAOK1 / Fold change vs veh, TAOK1 / RFU, ACBD3 / Fold change vs veh, ACBD3 / RFU, TMA16 / Fold change vs veh, TMA16 / RFU, RWDD3 / Fold change vs veh, RWDD3 / RFU, BCAT1 / Fold change vs veh, BCAT1 / RFU, EDEM3 / Fold change vs veh, EDEM3 / RFU, TMEM33 / Fold change vs veh, TMEM33 / RFU, WDR75 / Fold change vs veh, WDR75 / RFU, AHCTF1 / Fold change vs veh, AHCTF1 / RFU, TFRC / Fold change vs veh, TFRC / RFU, ZDHHC17 / Fold change vs veh, ZDHHC17 / RFU, NOM1 / Fold change vs veh, NOM1 / RFU, ARL8B / Fold change vs veh, ARL8B / RFU, ZBTB11 / Fold change vs veh, ZBTB11 / RFU, TAMM41 / Fold change vs veh, TAMM41 / RFU, KIAA1704 /// LOC100996395 / Fold change vs veh, KIAA1704 /// LOC100996395 / RFU, ING1 / Fold change vs veh, ING1 / RFU, TRMT61B / Fold change vs veh, TRMT61B / RFU, FUBP3 / Fold change vs veh, FUBP3 / RFU, TP53 / Fold change vs veh, TP53 / RFU, TNKS2 / Fold change vs veh, TNKS2 / RFU, ZFP14 / Fold change vs veh, ZFP14 / RFU, ACTR2 / Fold change vs veh, ACTR2 / RFU, PPP3R1 / Fold change vs veh, PPP3R1 / RFU, PIK3R1 / Fold change vs veh, PIK3R1 / RFU, HNRNPA1 / Fold change vs veh, HNRNPA1 / RFU, RNF170 / Fold change vs veh, RNF170 / RFU, ZNF28 / Fold change vs veh, ZNF28 / RFU, RNGTT / Fold change vs veh, RNGTT / RFU, OGT / Fold change vs veh, OGT / RFU, BRD1 / Fold change vs veh, BRD1 / RFU, MARS / Fold change vs veh, MARS / RFU, ZNF655 / Fold change vs veh, ZNF655 / RFU, FAHD1 / Fold change vs veh, FAHD1 / RFU, BDP1 / Fold change vs veh, BDP1 / RFU, LRRCC1 / Fold change vs veh, LRRCC1 / RFU, ARID1A / Fold change vs veh, ARID1A / RFU, ZNF146 / Fold change vs veh, ZNF146 / RFU, ZNF330 / Fold change vs veh, ZNF330 / RFU, GPN3 / Fold change vs veh, GPN3 / RFU, C9orf123 / Fold change vs veh, C9orf123 / RFU, N4BP2L2 / Fold change vs veh, N4BP2L2 / RFU, ARFIP1 / Fold change vs veh, ARFIP1 / RFU, FAM179B / Fold change vs veh, FAM179B / RFU, BCL10 / Fold change vs veh, BCL10 / RFU, UHRF1BP1L / Fold change vs veh, UHRF1BP1L / RFU, BET1 / Fold change vs veh, BET1 / RFU, CNOT2 / Fold change vs veh, CNOT2 / RFU, ZNF268 / Fold change vs veh, ZNF268 / Fold change vs veh, ZNF507 / RFU, DGCR2 / Fold change vs veh, DGCR2 / RFU, WDSUB1 / Fold change vs veh, WDSUB1 / Fold change vs veh, HSP90B1 /// MIR3652 / RFU, ADSS / Fold change vs veh, ADSS / RFU, GK / Fold change vs veh, GK / RFU, ZNF148 / Fold change vs veh, ZNF148 / RFU, TAF9 / Fold change vs veh, TAF9 / RFU, SLC1A5 / Fold change vs veh, SLC1A5 / RFU, SLMO2 / Fold change vs veh, SLMO2 / RFU, ABCC4 / Fold change vs veh, ABCC4 / RFU, LOC101060439 /// RAP1B / Fold change vs veh, LOC101060439 /// RAP1B / RFU, RFX7 / Fold change vs veh, RFX7 / RFU, GTPBP10 / Fold change vs veh, GTPBP10 / RFU, CNEP1R1 / Fold change vs veh, CNEP1R1 / RFU, BIVM-ERCC5 /// ERCC5 / Fold change vs veh, BIVM-ERCC5 /// ERCC5 / RFU, ILF3 / Fold change vs veh, ILF3 / RFU 11762660_at / Fold change /veh 11762660_at / RFU VCAN (11757783_s_at) / Fold change /veh VCAN (11757783_s_at) / RFU DDX43 (11728927_at) / Fold change /veh DDX43 (11728927_at) / RFU KRT8 (11758188_x_at) / Fold change /veh KRT8 (11758188_x_at) / RFU NKD1 (11759106_at) / Fold change /veh NKD1 (11759106_at) / RFU SRD5A1 (11742802_a_at) / Fold change /veh SRD5A1 (11742802_a_at) / RFU TPSAB1 /// TPSB2 (11721975_s_at) / Fold change /veh TPSAB1 /// TPSB2 (11721975_s_at) / RFU GSTM3 (11746129_a_at) / Fold change /veh GSTM3 (11746129_a_at) / RFU IL23R (11737362_x_at) / Fold change /veh IL23R (11737362_x_at) / RFU TMEM51 (11727254_a_at) / Fold change /veh TMEM51 (11727254_a_at) / RFU PIWIL2 (11732686_x_at) / Fold change /veh PIWIL2 (11732686_x_at) / RFU ORM1 (11744905_x_at) / Fold change /veh ORM1 (11744905_x_at) / RFU CCDC152 (11743942_at) / Fold change /veh CCDC152 (11743942_at) / RFU ECM1 (11717891_a_at) / Fold change /veh ECM1 (11717891_a_at) / RFU IL23R (11748794_a_at) / Fold change /veh IL23R (11748794_a_at) / RFU TNFAIP8L3 (11732012_x_at) / Fold change /veh TNFAIP8L3 (11732012_x_at) / RFU MBOAT4 (11741988_at) / Fold change /veh MBOAT4 (11741988_at) / RFU 11764193_at / Fold change /veh 11764193_at / RFU TMEM53 (11763286_at) / Fold change /veh TMEM53 (11763286_at) / RFU MAGEB2 (11727129_at) / Fold change /veh MAGEB2 (11727129_at) / RFU TMEM200A (11744735_a_at) / Fold change /veh TMEM200A (11744735_a_at) / RFU CCDC152 (11751479_a_at) / Fold change /veh CCDC152 (11751479_a_at) / RFU FAM211A (11726209_a_at) / Fold change /veh FAM211A (11726209_a_at) / RFU RGS16 (11746705_a_at) / Fold change /veh RGS16 (11746705_a_at) / RFU VCAN (11755009_s_at) / Fold change /veh VCAN (11755009_s_at) / RFU RHOB (11743442_s_at) / Fold change /veh RHOB (11743442_s_at) / RFU RGS16 (11720943_a_at) / Fold change /veh RGS16 (11720943_a_at) / RFU RGS16 (11720944_at) / Fold change /veh RGS16 (11720944_at) / RFU, VPS4B / Fold change vs veh, VPS4B / RFU, CREB1 / Fold change vs veh, CREB1 / RFU, DNAJC13 / Fold change vs veh, DNAJC13 / RFU, GNAQ / Fold change vs veh, GNAQ / RFU, CDK5R1 / Fold change vs veh, CDK5R1 / RFU, ZRANB3 / Fold change vs veh, ZRANB3 / RFU, CUL4A / Fold change vs veh, CUL4A / RFU, CCNY / Fold change vs veh, CCNY / RFU, UFL1 / Fold change vs veh, UFL1 / RFU, COG3 / Fold change vs veh, COG3 / RFU, DIAPH2 / Fold change vs veh, DIAPH2 / RFU, SKA2 / Fold change vs veh, SKA2 / RFU, AFF3 / Fold change vs veh, AFF3 / RFU, LMF1 / Fold change vs veh, LMF1 / RFU, IPO11 / Fold change vs veh, IPO11 / RFU, DFFB / Fold change vs veh, DFFB / RFU, FOXP1 / Fold change vs veh, FOXP1 / RFU, CARD8 / Fold change vs veh, CARD8 / RFU, STRN3 / Fold change vs veh, STRN3 / RFU, ADK / Fold change vs veh, ADK / RFU, RASSF2 / Fold change vs veh, RASSF2 / RFU, WIPF1 / Fold change vs veh, WIPF1 / RFU, LARP1B / Fold change vs veh, LARP1B / RFU, RASA1 / Fold change vs veh, RASA1 / RFU, RB1 / Fold change vs veh, RB1 / RFU, PPFIA1 / Fold change vs veh, PPFIA1 / RFU, MAT2A / Fold change vs veh, MAT2A / RFU, CCT5 / Fold change vs veh, CCT5 / RFU, WDR92 / Fold change vs veh, WDR92 / RFU, CUX1 / Fold change vs veh, CUX1 / RFU, TTC7A / Fold change vs veh, TTC7A / RFU, TMEM135 / Fold change vs veh, TMEM135 / RFU, DEPTOR / Fold change vs veh, DEPTOR / RFU, CPM / Fold change vs veh, CPM / RFU, DNAJB6 / Fold change vs veh, DNAJB6 / RFU, CACNA2D3 / Fold change vs veh, CACNA2D3 / RFU, DTX4 / Fold change vs veh, DTX4 / RFU, TFCP2 / Fold change vs veh, TFCP2 / RFU, GMCL1 /// GMCL1P1 / Fold change vs veh, GMCL1 /// GMCL1P1 / RFU, AEBP2 / Fold change vs veh, AEBP2 / RFU, SNHG1 /// SNORD22 /// SNORD25 /// SNORD26 /// SNORD27 /// SNORD28 /// SNORD29 /// SNORD31 / Fold change vs veh, SNHG1 /// SNORD22 /// SNORD25 /// SNORD26 /// SNORD27 /// SNORD28 /// SNORD29 /// SNORD31 / Fold change (Aza/veh), C12orf56 (ProbeSet 11735607_a_at) / Fold change (ACY-1035/veh), C12orf56 (ProbeSet 11735607_a_at) / Fold change (Aza/veh), FGFR1OP (ProbeSet 11751329_s_at) / Fold change (ACY-1035/veh), FGFR1OP (ProbeSet 11751329_s_at) / Fold change (Aza/veh), VPS36 (ProbeSet 11739960_a_at) / Fold change (ACY-1035/veh), VPS36 (ProbeSet 11739960_a_at) / RFU SYPL1 (11715823_x_at) / Fold change /veh SYPL1 (11715823_x_at) / RFU IGFBP7 (11715501_s_at) / Fold change /veh IGFBP7 (11715501_s_at) / RFU REEP3 (11722064_at) / Fold change /veh REEP3 (11722064_at) / RFU IGLL1 (11728026_x_at) / Fold change /veh IGLL1 (11728026_x_at): dose or concentration left out as unconfirmed
Details: MV-4-11 cells, 48 hours

Structure (SMILES): Nc1ccc(-c2cccs2)cc1NC(=O)c1ccc2c(c1)cc(C1CC1)n2CCN1CCOCC1 [ACY-1035]
- Fold change /veh DDX43 (11728927_at): 1.03
